Experimental data taken from US12077503B2, “Substituted cyclic amides and their use as herbicides” (FMC CORPORATION, priority 2015, dated 2024).
Like-named read-outs stand apart in the source and are kept apart here.

How the values were obtained:
Assay in all cases: Test A postemergence
Format in all cases: in vivo
[1] = test system: wheat (Triticum aestivum); conditions: Triticum aestivum, post-emergence, 240 h; for plant injury at 125 g/ha: 125 g ai/ha, read-out: Wheat plant response rating (0 to 100 scale); for plant injury at 500 g/ha: 500 g ai/ha, visual injury, 0 to 100 scale (0 no effect, 100 complete control), approx. 10 d, read-out: Plant response rating, Wheat
Procedure, shortened: (§1)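 Seeded soil received test chemicals as a preemergence directed spray, and seedlings at one to two leaves, 2–10 cm tall, received them postemergence, in a non-phytotoxic, surfactant-containing solvent mixture. Pots were held in a greenhouse for approximately 10 d, then rated for injury from 0, no effect, to 100, complete control.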

[2] = test system: blackgrass (Alopecurus myosuroides); conditions: Alopecurus myosuroides, post-emergence, 240 h; for pest or weed control at 125 g/ha: 125 g ai/ha, read-out: Blackgrass plant response rating (0 to 100 scale); for pest or weed control at 500 g/ha: 500 g ai/ha, visual injury, 0 to 100 scale (0 no effect, 100 complete control), approx. 10 d, read-out: Plant response rating, Blackgrass
Procedure, shortened: as §1

[3] = test system: Galium (catchweed bedstraw, Galium aparine); conditions: Galium, post-emergence, 240 h; for pest or weed control at 125 g/ha: 125 g ai/ha, read-out: Galium plant response rating (0 to 100 scale); for pest or weed control at 500 g/ha: 500 g ai/ha, visual injury, 0 to 100 scale (0 no effect, 100 complete control), approx. 10 d, read-out: Plant response rating, Galium
Procedure, shortened: as §1

[4] = test system: ragweed (common ragweed, Ambrosia elatior); conditions: Ambrosia artemisiifolia, post-emergence, 240 h; for pest or weed control at 125 g/ha: 125 g ai/ha, read-out: Ragweed plant response rating (0 to 100 scale); for pest or weed control at 500 g/ha: 500 g ai/ha, visual injury, 0 to 100 scale (0 no effect, 100 complete control), approx. 10 d, read-out: Plant response rating, Ragweed
Procedure, shortened: as §1

[5] = test system: barnyardgrass (Echinochloa crus-galli); conditions: Echinochloa crus-galli, post-emergence, 240 h; for pest or weed control at 125 g/ha: 125 g ai/ha; for pest or weed control at 500 g/ha: 500 g ai/ha, visual injury, 0 to 100 scale (0 no effect, 100 complete control), approx. 10 d, read-out: Plant response rating, Barnyardgrass
Procedure, shortened: as §1

corn (Zea mays) = conditions: Zea mays, post-emergence, 240 h; for plant injury at 125 g/ha: 125 g ai/ha, read-out: Corn plant response rating (0 to 100 scale); for Corn plant response rating (crop injury, 0 = no effect, 100 = complete kill) at 500 g/ha: 500 g ai/ha, visual injury, 0 to 100 scale (0 no effect, 100 complete control), approx. 10 d
Procedure, shortened: as §1

[6] = postemergence, visual injury vs untreated controls after approx. 10 d, 0 = no effect, 100 = complete control
[7] = postemergence, visual injury vs untreated controls after approx. 10 d, 0 = no effect, 100 = complete control, read-out: Barnyardgrass plant response rating (0 to 100 scale)
[8] = Postemergence, visual rating about 10 d after treatment
[9] = Postemergence, visual rating about 10 d after treatment, read-out: Barnyardgrass plant response rating (0 to 100 scale, 0 no effect, 100 complete control)

| Structure (SMILES) | plant injury at 125 g/ha [1, 6] [%] | plant injury at 500 g/ha ([1]; Postemergence) [%] | pest or weed control at 125 g/ha [2, 6] [%] | pest or weed control at 500 g/ha ([2]; Postemergence) [%] | pest or weed control at 125 g/ha [3, 6] [%] | pest or weed control at 500 g/ha ([3]; Postemergence) [%] | pest or weed control at 125 g/ha [4, 6] [%] | pest or weed control at 500 g/ha ([4]; Postemergence) [%] | pest or weed control at 125 g/ha [5, 7] [%] | pest or weed control at 500 g/ha ([5]; Postemergence) [%] | plant injury at 125 g/ha (corn (Zea mays); [6]) [%] | Corn plant response rating (crop injury, 0 = no effect, 100 = complete kill) at 500 g/ha (corn (Zea mays); Postemergence) [%] | plant injury at 125 g/ha [1, 8] [%] | pest or weed control at 125 g/ha [2, 8] [%] | pest or weed control at 125 g/ha [3, 8] [%] | pest or weed control at 125 g/ha [4, 8] [%] | pest or weed control at 125 g/ha [5, 9] [%] | plant injury at 125 g/ha (corn (Zea mays); [8]) [%] |
| --- | --- | --- | --- | --- | --- | --- | --- | --- | --- | --- | --- | --- | --- | --- | --- | --- | --- | --- |
| CCc1ccc([C@H]2CNC(=O)[C@@H]2C(=O)Nc2c(F)cccc2F)cc1 [Compound 1248] | 0 | 0 | 0 | 0 | 0 | 0 | 0 | 0 | 0 | 50 | 0 | 0 | – | – | – | – | – | – |
| CN1C[C@H](c2ccc(F)c(C#N)c2)[C@@H](C(=O)Nc2cccc(F)c2F)C1=O [Compound 1255] | – | 60 | 0 | 60 | 40 | 60 | 0 | 40 | 90 | 100 | 60 | 90 | – | – | – | – | – | – |
| CN1C[C@H](c2ccc(C(F)F)cc2)[C@@H](C(=O)Nc2ccc(F)c(F)c2F)C1=O [Compound 1260] | – | 90 | 70 | 80 | 70 | 70 | 50 | 70 | 90 | 90 | 90 | 90 | – | – | – | – | – | – |
| Cc1nc([C@H]2CN(C)C(=O)[C@@H]2C(=O)Nc2cccc(F)c2F)cs1 [Compound 1281] | – | 0 | – | 0 | – | 50 | – | 0 | – | 80 | – | 0 | 0 | 0 | 0 | 0 | 20 | 0 |
| COc1cc([C@H]2CN(C)C(=O)[C@@H]2C(=O)Nc2ccccc2F)ccc1F [Compound 1298] | – | 20 | – | 0 | – | 20 | – | 0 | – | 80 | – | 0 | 0 | 0 | 0 | 0 | 80 | 0 |
